Experimental data: paper PMC9841532, “Exploring the Effect of Halogenation in a Series of Potent and Selective A2B Adenosine Receptor Antagonists” (Journal of Medicinal Chemistry, 2022)
≈ marks a conversion by molar mass, not a printed value. Read-outs that look alike come from different tables or passages of the source. Blank lines part the entries; values can stand above or below the compound they belong to.

Legend:
A2B = conditions: Figure 1, representative A2B antagonists ref 28-32; read-out: Ki; cited from earlier work
[1] = Human microsomal stability; format: in vitro ADME; conditions: human microsomes; for microsomal stability percent (percentage remanent): sampling time 60 min; for microsomal CLint at 1 h / half-life at 1 h: human, pH 7.4; for microsomal CLint at 1 h: read-out: microsomal stability Clint (intrinsic clearance); for half-life at 1 h: read-out: microsomal stability t1/2
Method: The human microsomal stability of selected compounds was evaluated by following a previously described method.[31] The human microsomes employed were purchased from Tebu-Xenotech. The compound was incubated with the microsomes at 37 °C in a 50 mM phosphate buffer (pH = 7.4) containing 3 mM MgCl2, 1 mM NADP, 10 mM glucose-6-phosphate, and 1 U/mL glucose-6-phosphate-dehydrogenase. Samples (75 μL) were taken from each well at 0, 10, 20, 40, and 60 min and transferred to a plate containing 4 °C 75 μL acetonitrile and 30 μL of 0.5% formic acid in water was added for improving the chromatographic conditions. The plate was centrifuged (46,000 g, 30 min), and supernatants were taken and analyzed in a UPLC-MS/MS (Xevo TQD, Waters) by employing a BEH C18 column and an isocratic gradient of 0.1% formic acid in water:0.1% formic acid acetonitrile (60:40). The metabolic stability of the compounds was calculated from the logarithm of the remaining compounds at each of the time point studied.

hA2AAR = target: T1, hA2AAR (Homo sapiens, UniProt P29274); assay: Radioligand binding competition, [3H]ZM241385, membranes from HeLa-A2A cells; conditions: for % at 1 μM hA2A (percentage displacement of specific binding): [3H]ZM241385, human HeLa cells, n = 2
T1 construct: expressed in transfected cells; host or cells: HeLa (HeLa-A2A) cell membranes
How it was run: (§1)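 Racemates, plus selected enantiomers after chiral resolution, were tested at 25 °C, with a 60 min incubation for one subtype and 30 min for others. Non-specific binding was defined with 10 μM or 100 μM R-PIA. Bound radioactivity was counted after washing and filtration.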

hA3AR [2] = target: T2, hA3AR (Homo sapiens, UniProt P0DMS8); assay: Radioligand binding competition, [3H]NECA, membranes from HeLa-A3 cells; conditions: 1 μM, [3H]NECA, human HeLa cells, n = 2
T2 construct: expressed in transfected cells; host or cells: HeLa (HeLa-A3) cell membranes
T2 sequence (P0DMS8 1-318): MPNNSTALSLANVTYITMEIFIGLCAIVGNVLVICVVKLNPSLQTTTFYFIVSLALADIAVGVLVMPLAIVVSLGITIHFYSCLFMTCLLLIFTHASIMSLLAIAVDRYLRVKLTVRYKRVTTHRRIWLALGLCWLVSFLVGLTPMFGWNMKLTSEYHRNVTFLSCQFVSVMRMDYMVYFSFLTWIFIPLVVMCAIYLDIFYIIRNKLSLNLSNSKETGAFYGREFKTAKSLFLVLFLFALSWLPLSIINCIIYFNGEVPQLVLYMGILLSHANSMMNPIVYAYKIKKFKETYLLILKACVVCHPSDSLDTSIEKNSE
How it was run: as §1

CYP3A4 = target: T3, CYP3A4 (Homo sapiens, UniProt P08684); assay: CYP3A4 inhibition (fluorescence, substrates DBF or 7-BFC); format: biochemical; conditions: for IC50: IC50 obtained by extrapolation with analysis software
T3 construct: host or cells: insect cell microsomes
Method: To identify potential metabolic liabilities within the series here documented, the selected A2BAR antagonists were tested in vitro for CYP3A4 inhibitory activity.
The inhibitory activity of selected compounds was evaluated by following a previously described method.[31] […] The plate was then pre-incubated at 37 °C for 5 min and the reaction initiated by the addition of a pre-warmed enzyme/substrate (E/S) mix. The E/S mix contained buffer (KH2PO4), c-DNA-expressed P450 in insect cell microsomes, substrate (DBF: dibenzylfluorescein or 7-BFC: 7-benzyloxy-4-trifluoromethyl-coumarin) and other components to give the final assay concentrations in a reaction volume of 200 μL. Reactions were terminated after various times (a specific time for each cytochrome) by addition of STOP solution (ACN/Tris–HCl 0.5 M 80:20, and NaOH 2 N for CYP3A4). Fluorescence per well was measured using a fluorescence plate reader (Tecan Infinite M1000 PRO), and percentage of inhibition was calculated. In silico predictions were performed using free web-based models (FAME 3, SmartCYP, and Xenosite).[62]−[64]

hA2BAR = target: T4, hA2BAR (Homo sapiens, UniProt P29275); assay: Radioligand binding competition, [3H]DPCPX, membranes from HEK-293-A2B cells; set-up: Exp. dG: unit not given here; conditions: for Ki: read-out: Ki hA2B; for Exp. dG: experimental binding free energy, Supplementary Table S3, unit not given (errors in kcal/mol)
T4 construct: host or cells: HEK-293 (HEK-293-A2B) cell membranes
T4 sequence (P29275 1-332): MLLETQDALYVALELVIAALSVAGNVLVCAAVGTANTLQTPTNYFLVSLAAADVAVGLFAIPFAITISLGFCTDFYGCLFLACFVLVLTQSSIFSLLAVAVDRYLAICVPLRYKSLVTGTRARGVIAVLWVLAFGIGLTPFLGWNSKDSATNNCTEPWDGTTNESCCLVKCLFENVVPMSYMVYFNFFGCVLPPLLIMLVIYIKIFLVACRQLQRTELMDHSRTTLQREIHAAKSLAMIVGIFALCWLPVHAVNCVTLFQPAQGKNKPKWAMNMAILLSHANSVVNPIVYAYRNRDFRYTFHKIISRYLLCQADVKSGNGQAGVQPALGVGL
How it was run: as §1

hA1AR [3] = target: T5, hA1AR (Homo sapiens, UniProt P30542); assay: Radioligand binding competition, [3H]DPCPX, membranes from CHO-A1 cells; conditions: 1 μM, [3H]DPCPX, human CHO cells, n = 2
T5 sequence (P30542 1-326): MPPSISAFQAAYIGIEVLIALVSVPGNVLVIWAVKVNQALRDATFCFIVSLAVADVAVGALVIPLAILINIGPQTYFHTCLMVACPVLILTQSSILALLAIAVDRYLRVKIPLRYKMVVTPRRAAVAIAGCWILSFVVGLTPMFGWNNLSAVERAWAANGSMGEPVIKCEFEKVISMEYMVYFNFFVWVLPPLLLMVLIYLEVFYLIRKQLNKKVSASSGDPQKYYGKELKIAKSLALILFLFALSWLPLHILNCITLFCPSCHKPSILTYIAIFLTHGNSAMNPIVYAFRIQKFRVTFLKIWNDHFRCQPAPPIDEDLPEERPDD
How it was run: as §1

[4] = Solubility determination (nephelometry); format: physicochemical; conditions: 1:99 DMSO/PSB buffer, PBS pH 7, 37 °C
Method: The solubility of selected compounds was evaluated by following a previously described method.[31] A 10 mM stock solution of the compound was serially diluted in 100% DMSO, and 2.5 μL of this solution was added to a 384-well UV-transparent plate (Greiner) containing 47.5 μL of PBS (pH = 7). The plate was incubated at 37 °C for 4 h, and the light scattering was measured in a NEPHELOstar Plus reader (BMG LABTECH). The data was fitted to a segmented linear regression for measuring the compound solubility.

hA3AR [5] = target: T2, hA3AR; conditions: prototype series, [3H]NECA, human HeLa cells ref 30, 31; cited from earlier work
hA1AR [6] = target: T5, hA1AR; conditions: prototype series, [3H]DPCPX, human CHO cells ref 30, 31; cited from earlier work
[7] = 10 μM, substrate 7-benzyloxy-4-trifluoromethyl-coumarin
[8] = displacement of specific [3H]DPCPX binding in human HEK-293 cells, n = 3

T1 sequence (P29274 whole entry): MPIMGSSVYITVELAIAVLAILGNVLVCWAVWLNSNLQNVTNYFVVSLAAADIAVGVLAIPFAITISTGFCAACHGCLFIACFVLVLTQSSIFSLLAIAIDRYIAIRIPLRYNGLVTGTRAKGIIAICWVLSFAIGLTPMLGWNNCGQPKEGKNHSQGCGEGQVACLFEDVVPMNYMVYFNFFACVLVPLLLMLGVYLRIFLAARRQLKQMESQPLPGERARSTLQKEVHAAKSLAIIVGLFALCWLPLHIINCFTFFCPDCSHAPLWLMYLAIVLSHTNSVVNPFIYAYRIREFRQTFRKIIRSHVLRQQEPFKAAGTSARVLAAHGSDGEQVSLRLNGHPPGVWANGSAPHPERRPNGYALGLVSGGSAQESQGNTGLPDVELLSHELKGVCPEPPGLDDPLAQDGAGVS
T3 sequence (P08684 whole entry): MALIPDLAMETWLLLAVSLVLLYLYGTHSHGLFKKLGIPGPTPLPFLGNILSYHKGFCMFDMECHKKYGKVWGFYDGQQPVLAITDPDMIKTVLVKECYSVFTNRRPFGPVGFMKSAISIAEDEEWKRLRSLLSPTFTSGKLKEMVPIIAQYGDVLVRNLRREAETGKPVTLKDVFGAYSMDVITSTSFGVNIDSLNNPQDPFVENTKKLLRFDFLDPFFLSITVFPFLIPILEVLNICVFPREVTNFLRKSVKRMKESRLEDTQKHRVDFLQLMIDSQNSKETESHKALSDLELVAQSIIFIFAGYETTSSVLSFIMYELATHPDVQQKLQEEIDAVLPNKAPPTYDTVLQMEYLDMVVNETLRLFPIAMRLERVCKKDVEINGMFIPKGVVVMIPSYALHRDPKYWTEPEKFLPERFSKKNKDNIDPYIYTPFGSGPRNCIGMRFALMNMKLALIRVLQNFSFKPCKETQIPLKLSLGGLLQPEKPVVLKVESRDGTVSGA

SMILES: CCOC(=O)C1=C(C)Nc2nc3ccccc3n2C1c1cocn1 (stereo not drawn) [IX]
Ki (A2B): 8.1 nM

microsomal stability percent (percentage remanent) [1]: 20.97%
microsomal CLint at 1 h [1]: 21.6 µL/min/mg
half-life at 1 h [1]: 28.9 min
% at 1 μM hA2A (percentage displacement of specific binding) (hA2AAR): 22%
% at 1 μM hA3 (percentage displacement of specific binding) (hA3AR [2]): 14%
CYP3A4 % inh. at 10 μM, 7-BFC (CYP3A4; [7]): 58%
CYP3A4 % inh. at 10 μM, DBF (CYP3A4; 10 μM, substrate dibenzylfluorescein): 39%
Ki (hA2BAR; [8]): 11.9 ± 1.1 nM
% at 1 μM hA1 (percentage displacement of specific binding) (hA1AR [3]): 13%
solubility at 4 h [4]: 62 µM (≈ 23.1 µg/mL)
SMILES: CC1=C(C(=O)OC(C)C)C(c2ccco2)n2c(nc3cc(F)c(F)cc32)N1 (stereo not drawn) [14b]

SMILES: CC(=O)[C@H]1CC[C@H]2[C@@H]3CCC4=CC(=O)CC[C@]4(C)[C@H]3CC[C@]12C [progesterone, reference compound]
solubility at 4 h [4]: 6.7 µM (≈ 2.11 µg/mL)

microsomal stability percent (percentage remanent) [1]: 41.02%
microsomal CLint at 1 h [1]: 11.7 µL/min/mg
half-life at 1 h [1]: 44.8 min
Ki (hA2AAR; displacement of specific [3H]ZM241385 binding in human HeLa cells, n = 3, read-out: Ki hA2A): 176 ± 4 nM
% at 1 μM hA3 (percentage displacement of specific binding) (hA3AR [2]): 1%
CYP3A4 % inh. at 10 μM, 7-BFC (CYP3A4; [7]): 44%
IC50 (CYP3A4; substrate 7-benzyloxy-4-trifluoromethyl-coumarin, read-out: CYP3A4 IC50, 7-BFC): > 10000 nM
IC50 (CYP3A4; substrate dibenzylfluorescein, read-out: CYP3A4 IC50, DBF): 6360 ± 1020 nM
Ki (hA2BAR; [8]): 6.1 ± 0.7 nM
Exp. dG (hA2BAR): -11.2
Ki (hA2BAR): < 10 nM
% at 1 μM hA1 (percentage displacement of specific binding) (hA1AR [3]): 27%
solubility at 4 h [4]: 21.9 µM (≈ 8.14 µg/mL)
SMILES: CC1=C(C(=O)OC(C)C)C(c2ccoc2)n2c(nc3cc(Cl)ccc32)N1 (stereo not drawn) [16l]

SMILES: CCCn1c(=O)[nH]c2nc(-c3ccc(S(=O)(=O)N4CCN(c5ccc(Br)cc5)CC4)cc3)[nH]c2c1=O [PSB-1901]
Ki (A2B): 0.083 nM

SMILES: c1cncc(Nc2ncc(-c3ccncn3)c(-c3ccco3)n2)c1 [LAS38096, 4′-(2-Furyl)-N-Pyridin-3-Yl-4,5‘-Bipyrimidin-2‘-Amine]
Ki (A2B): 17 nM

SMILES: O=c1c(-c2ccccc2)nnc2n(-c3ccccc3)c3ccc(Cl)cc3n12 [compound 5]
Ki (A2B): 1.4 nM

Exp. dG (hA2BAR): -10.83
SMILES: CC1=C(C(=O)OC(C)C)C(c2ccoc2)n2c(nc3ccccc32)N1 (stereo not drawn) [IV]
% at 1 μM hA3 (percentage displacement of specific binding) (hA3AR [5]): 2%
% at 1 μM hA1 (percentage displacement of specific binding) (hA1AR [6]): 12%

SMILES: CCCn1c(=O)c2[nH]c(-c3cnn(Cc4cccc(C(F)(F)F)c4)c3)nc2n(CCC)c1=O [CVT-7124]
Ki (A2B): 6 nM

% at 1 μM hA2A (percentage displacement of specific binding) (hA2AAR): 32%
% at 1 μM hA3 (percentage displacement of specific binding) (hA3AR [2]): 15%
% at 1 μM hA2B (percentage displacement of specific binding) (hA2BAR; 1 μM, [3H]DPCPX, human HEK-293 cells, n = 2): 26%
% at 1 μM hA1 (percentage displacement of specific binding) (hA1AR [3]): 9%
SMILES: CCOC(=O)C1=C(C)Nc2nc3cc(Cl)ccc3n2[C@H]1c1cocn1 [(R)-18c]
